Source: patent publication US20230192878A1, “METHODS, THERAPIES AND USES FOR TREATING CANCER” (PFIZER INC., priority 2020, published 2023)

Legend:
[1] = test system: Molp8; test: Cell surface BCMA expression after GSI, concentration series; format: cell-based; conditions: 24 hours
Procedure: (§1) Multiple myeloma cells (MM.1S, OPM2, H929, Molp8, RPMI8226) were seeded in a 96-well U bottom plate at 40,000 cells/well. Cells were incubated for 24 hours in the presence of GSI diluted in RPMI (0.1% DMSO). The following concentrations of the GSI were tested: 1000 nM, 500 nM, 100 nM, 50 nM, 25 nM, 10 nM, 5 nM, 2.5 nM, 1 nM, 0.1 nM, 0.01 nM. 24 hours later cells were collected and washed with PBS+2% FBS, followed by staining with ZombieNIR Viability Dye (Biolegend) at 1 in 500 dilution in PBS at room temperature for 20 minutes. Next, cells were washed with PBS+2% FBS and stained with anti-BCMA PE-labelled antibody (Biolegend) diluted in PBS+2% FBS for 30 minutes at 4° C. Cells were acquired on BD Flow Cytometer and analyzed using FlowJo flow cytometry analysis software. Dead cells were removed from analysis by gating on ZombieNIR negative population. BCMA mean fluorescence intensity (MFI) was plotted against GSI concentration to establish EC50.

[2] = test system: RPMI8226; test: as above; format: cell-based; conditions: 24 hours
Procedure: as §1

[3] = test system: H929; test: Soluble BCMA (sBCMA) shedding after GSI (ELISA); format: cell-based, Human; design: unit not given here; conditions: Table 6 (sBCMA in supernatant, ELISA), 24 hours
Procedure: (§2) Multiple myeloma cells (MM.1S, OPM2, H929, Molp8, RPMI8226) were seeded in a 96-well U-bottom plate at 40,000 cells/well. Cells were incubated for 24 hours in the presence of GSI diluted in RPMI medium (0.1% DMSO). The following concentrations of the GSI were tested: 1000 nM, 500 nM, 100 nM, 50 nM, 25 nM, 10 nM, 5 nM, 2.5 nM, 1 nM, 0.1 nM, 0.01 nM. After 24 hours, cell culture medium was collected and concentration of sBCMA was measured in supernatants using Human BCMA/TNFRSF17 DuoSet ELISA kit (R&D Systems) according to manufacturer's instructions.

[4] = test system: RPMI8226; test: Soluble BCMA (sBCMA) shedding after GSI (ELISA); format: cell-based, Human; design: unit not given here; conditions: Table 6 (sBCMA in supernatant, ELISA), 24 hours
Procedure: as §2

[5] = test system: Molp8; test: Soluble BCMA (sBCMA) shedding after GSI (ELISA); format: cell-based, Human; design: unit not given here; conditions: Table 6 (sBCMA in supernatant, ELISA), 24 hours
[6] = Preliminary pharmacokinetic (PK) analysis, Phase 1 study; format: in vivo, human
Procedure: Therefore, a fixed dose is suitable for the dosing of PF-06863135. Based on the encouraging efficacy data and safety data obtained from Part I of Study, a promising RP2D for Part 2A of the study could be a fixed dose equivalent of 1000 μg/kg (i.e., 76 mg) of PF-06863135 either in Q1W or Q2W. A fixed dose equivalent of 600 μg/kg (ie, 44 mg) will likely be used as a priming dose on cycle zero day 1. The initial dose of 44 mg serves as a priming dose and is designed to mitigate the CRS symptoms of the later 76 mg dose. […] Subsequently, the 44 mg (priming) and 76 mg (maintenance) were selected as the single agent RP2D dose. Patient will be administered a single priming dose of 44 mg SC of PF06863135, followed by maintenance dosing of 76 mg Q1W SC or 76 mg Q2W starting 7 days after the single priming dose.

CCC[C@H](N[C@H]1CCc2cc(F)cc(F)c2C1)C(=O)Nc1cn(C(C)(C)CNCC(C)(C)C)cn1 [GSI, nirogacestat]
BCMA (-PE) MFI ([1]; Molp8, GSI 0.01 nM): 1191.5 | BCMA (-PE) MFI ([1]; Molp8, GSI 0.1 nM): 1242.5 | BCMA (-PE) MFI ([1]; Molp8, GSI 1 nM): 1288.5 | BCMA (-PE) MFI ([1]; Molp8, GSI 2.5 nM): 1401 | BCMA (-PE) MFI ([1]; Molp8, GSI 5 nM): 1761.5 | BCMA (-PE) MFI ([1]; Molp8, GSI 10 nM): 2183.5 | BCMA (-PE) MFI ([1]; Molp8, GSI 25 nM): 3691 | BCMA (-PE) MFI ([1]; Molp8, GSI 50 nM): 5120 | BCMA (-PE) MFI ([1]; Molp8, GSI 100 nM): 5412 | BCMA (-PE) MFI ([1]; Molp8, GSI 500 nM): 5640.5 | BCMA (-PE) MFI ([1]; Molp8, GSI 1000 nM): 6401 | BCMA (-PE) MFI ([2]; RPMI8226, GSI 0.01 nM): 10028 | BCMA (-PE) MFI ([2]; RPMI8226, GSI 0.1 nM): 10099 | BCMA (-PE) MFI ([2]; RPMI8226, GSI 1 nM): 10483.5 | BCMA (-PE) MFI ([2]; RPMI8226, GSI 2.5 nM): 10226.5 | BCMA (-PE) MFI ([2]; RPMI8226, GSI 5 nM): 10589.5 | BCMA (-PE) MFI ([2]; RPMI8226, GSI 10 nM): 11181.5 | BCMA (-PE) MFI ([2]; RPMI8226, GSI 25 nM): 12617 | BCMA (-PE) MFI ([2]; RPMI8226, GSI 50 nM): 13190.5 | BCMA (-PE) MFI ([2]; RPMI8226, GSI 100 nM): 13416 | BCMA (-PE) MFI ([2]; RPMI8226, GSI 500 nM): 13464.5 | BCMA (-PE) MFI ([2]; RPMI8226, GSI 1000 nM): 14362 | BCMA (-PE) MFI ([3]; H929, GSI 0.01 nM): 24084.8 | BCMA (-PE) MFI ([3]; H929, GSI 0.1 nM): 27414.8 | BCMA (-PE) MFI ([3]; H929, GSI 1 nM): 19516.4 | BCMA (-PE) MFI ([3]; H929, GSI 2.5 nM): 12874.8 | BCMA (-PE) MFI ([3]; H929, GSI 5 nM): 8438.2 | BCMA (-PE) MFI ([3]; H929, GSI 10 nM): 4901.7 | BCMA (-PE) MFI ([3]; H929, GSI 25 nM): 2336.4 | BCMA (-PE) MFI ([3]; H929, GSI 50 nM): 1460.7 | BCMA (-PE) MFI ([3]; H929, GSI 100 nM): 1110.6 | BCMA (-PE) MFI ([3]; H929, GSI 500 nM): 716.5 | BCMA (-PE) MFI ([3]; H929, GSI 1000 nM): 625.1 | BCMA (-PE) MFI ([4]; RPMI8226, GSI 0.01 nM): 4710.8 | BCMA (-PE) MFI ([4]; RPMI8226, GSI 0.1 nM): 3333.8 | BCMA (-PE) MFI ([4]; RPMI8226, GSI 1 nM): 2647.5 | BCMA (-PE) MFI ([4]; RPMI8226, GSI 2.5 nM): 2398 | BCMA (-PE) MFI ([4]; RPMI8226, GSI 5 nM): 2525.6 | BCMA (-PE) MFI ([4]; RPMI8226, GSI 10 nM): 1926.2 | BCMA (-PE) MFI ([4]; RPMI8226, GSI 25 nM): 836.5 | BCMA (-PE) MFI ([4]; RPMI8226, GSI 50 nM): 249.5 | BCMA (-PE) MFI ([4]; RPMI8226, GSI 100 nM): 64.1 | BCMA (-PE) MFI ([4]; RPMI8226, GSI 500 nM): 0 ± 0 | BCMA (-PE) MFI ([4]; RPMI8226, GSI 1000 nM): 0 ± 0 | BCMA (-PE) MFI ([5]; Molp8, GSI 0.01 nM): 6887.3 | BCMA (-PE) MFI ([5]; Molp8, GSI 0.1 nM): 6363.4 | BCMA (-PE) MFI ([5]; Molp8, GSI 1 nM): 6072.9 | BCMA (-PE) MFI ([5]; Molp8, GSI 2.5 nM): 6765.5 | BCMA (-PE) MFI ([5]; Molp8, GSI 5 nM): 5989.3 | BCMA (-PE) MFI ([5]; Molp8, GSI 10 nM): 5958.9 | BCMA (-PE) MFI ([5]; Molp8, GSI 25 nM): 3021.7 | BCMA (-PE) MFI ([5]; Molp8, GSI 50 nM): 1044.3 | BCMA (-PE) MFI ([5]; Molp8, GSI 100 nM): 431.8 | BCMA (-PE) MFI ([5]; Molp8, GSI 500 nM): 87.3 | BCMA (-PE) MFI ([5]; Molp8, GSI 1000 nM): 51.6

PF-06863135: heterodimeric humanized full-length bispecific antibody with one BCMA binding arm and one CD3 binding arm
Effect of body weight on PF-06863135 exposure [6]: not a clinically relevant factor
